Measured values taken from patent US9233989B2, “Sila analogs of oxazolidinone derivatives and synthesis thereof” (Council of Scientific & Industrial Research, priority 2011, dated 2016).
In brackets after ≈: the same amount, converted by molar mass.

Tests used:
[1] = system: S.aureus ATCC 13709 Smith; test: MIC by microbroth dilution method; type: cell-based
S.aureus ATCC 29213 = test: MIC by microbroth dilution method; type: cell-based
MRSA ATCC 43300 = test: MIC by microbroth dilution method; type: cell-based, S. aureus
MRSA 562 = test: MIC by microbroth dilution method; type: cell-based, S. aureus
S.aureus2 (PVL + ve) = type: cell-based, S. aureus
[2] = system: S.aureus ATCC Newman 25904; test: MIC by microbroth dilution method; type: cell-based
MRSA ATCC BAA 39 = test: MIC by microbroth dilution method; type: cell-based, S. aureus
S.aureus DB00026 = test: MIC by microbroth dilution method; type: cell-based
MRSA 252 BAA 1720 = test: MIC by microbroth dilution method; type: cell-based, S. aureus
S.epidermidis ATCC 14990 = test: MIC by microbroth dilution method; type: cell-based
MRSE ATCC 35984 = test: MIC by microbroth dilution method; type: cell-based, S. epidermidis
E.faecalis ATCC 29212 = test: MIC by microbroth dilution method; type: cell-based
[3] = system: E.faecalis ATCC 51299(VRE&HLAR); test: MIC by microbroth dilution method; type: cell-based
E.faecalis ATCC 19433 = test: MIC by microbroth dilution method; type: cell-based
E.faecium ATCC 19434 = test: MIC by microbroth dilution method; type: cell-based
E.faecium ATCC 49224 = test: MIC by microbroth dilution method; type: cell-based
E.faecium ATCC 35667 = test: MIC by microbroth dilution method; type: cell-based
E.coli 7632 = test: MIC by microbroth dilution method; type: cell-based
[4] = system: S.aureus ATCC 49775 PVL + ve; type: cell-based
[5] = system: S.aureus ATCC 700699 Mu50; test: MIC by microbroth dilution method; type: cell-based
MRSA 0-2657 = test: MIC by microbroth dilution method; type: cell-based, S. aureus
MRSA DB 00026 = test: MIC by microbroth dilution method; type: cell-based, S. aureus
[6] = system: S.aureus 13709 LNZ mutant; type: cell-based
S.epidermidis ATCC 12228 = test: MIC by microbroth dilution method; type: cell-based
MRSE ATCC 35983 = test: MIC by microbroth dilution method; type: cell-based, S. epidermidis
S.epidermis St 358 = test: MIC by microbroth dilution method; type: cell-based, S. epidermidis
E.faecalis SP 346 VRE = test: MIC by microbroth dilution method; type: cell-based
E.faecium 6A VRE = test: MIC by microbroth dilution method; type: cell-based
E.faecium 134 VRE = test: MIC by microbroth dilution method; type: cell-based
E.faecium 06076 VRE = test: MIC by microbroth dilution method; type: cell-based
E.faecium ATCC 3567 = test: MIC by microbroth dilution method; type: cell-based
[7] = system: Mycobacterium tuberculosis H37Rv; test: Anti-TB activity, colorimetric resazurin microtiter assay; type: cell-based; conditions: for MIC: Mycobacterium tuberculosis, H37RV, read-out: MIC, Minimum Inhibitory Concentration (90%)

Structure (SMILES)	MIC [1] [µg/mL]	MIC (S.aureus ATCC 29213) [µg/mL]	MIC (MRSA ATCC 43300) [µg/mL]	MIC (MRSA 562) [µg/mL]	MIC (S.aureus2 (PVL + ve)) [µg/mL]	MIC [2] [µg/mL]	MIC (MRSA ATCC BAA 39) [µg/mL]	MIC (S.aureus DB00026) [µg/mL]	MIC (MRSA 252 BAA 1720) [µg/mL]	MIC (S.epidermidis ATCC 14990) [µg/mL]	MIC (MRSE ATCC 35984) [µg/mL]	MIC (E.faecalis ATCC 29212) [µg/mL]	MIC [3] [µg/mL]	MIC (E.faecalis ATCC 19433) [µg/mL]	MIC (E.faecium ATCC 19434) [µg/mL]	MIC (E.faecium ATCC 49224) [µg/mL]	MIC (E.faecium ATCC 35667) [µg/mL]	MIC (E.coli 7632) [µg/mL]	MIC [4]	MIC [5] [µg/mL]	also measured
C[Si]1(C)CCN(c2c(F)cc(N3C[C@H](CO)OC3=O)cc2F)CC1 [NDS-10052, (R)-3-(4-(4,4-dimethyl-1,4-azasilinan-1-yl)-3,5-difluorophenyl)-5-(hydroxymethyl)oxazolidin-2-one]	> 32	> 32	> 32	16 (≈ 44.9 µM)	> 32	> 32	16 (≈ 44.9 µM)	32 (≈ 89.8 µM)	> 32	16 (≈ 44.9 µM)	32 (≈ 89.8 µM)	> 32	> 32	> 32	16 (≈ 44.9 µM)	8 (≈ 22.4 µM)	32 (≈ 89.8 µM)	> 32	> 32 µg/mL	8 (≈ 22.4 µM)	MIC (MRSA 0-2657): > 32 µg/mL; MIC (MRSA DB 00026): > 32 µg/mL; MIC [6]: > 32 µg/mL; MIC (S.epidermidis ATCC 12228): > 32 µg/mL; MIC (MRSE ATCC 35983): > 32 µg/mL; MIC (S.epidermis St 358): > 32 µg/mL; MIC (E.faecalis SP 346 VRE): > 32 µg/mL; MIC (E.faecium 6A VRE): 8 µg/mL (≈ 22.4 µM); MIC (E.faecium 134 VRE): > 32 µg/mL; MIC (E.faecium 06076 VRE): > 32 µg/mL; MIC (E.faecium ATCC 3567): 32 µg/mL (≈ 89.8 µM); melting point: 126 to 128 °C
C[Si]1(c2ccccc2)CCN(c2c(F)cc(N3C[C@H](CO)OC3=O)cc2F)CC1 [NDS-10071, (R)-3-(3,5-difluoro-4-(4-methyl-4-phenyl-1,4-azasilinan-1-yl)phenyl)-5-(hydroxylmethyl)oxazolidin-2-one]	32 (≈ 76.5 µM)	> 32	> 32	32 (≈ 76.5 µM)	32 (≈ 76.5 µM)	16 (≈ 38.2 µM)	32 (≈ 76.5 µM)	32 (≈ 76.5 µM)	32 (≈ 76.5 µM)	16 (≈ 38.2 µM)	16 (≈ 38.2 µM)	8 (≈ 19.1 µM)	32 (≈ 76.5 µM)	16 (≈ 38.2 µM)	32 (≈ 76.5 µM)	32 (≈ 76.5 µM)	16 (≈ 38.2 µM)	16 (≈ 38.2 µM)	16(ppt)	32 (≈ 76.5 µM)	MIC (MRSA 0-2657): 8(ppt); MIC (MRSA DB 00026): 16 µg/mL (≈ 38.2 µM); MIC [6]: 16(ppt); MIC (S.epidermidis ATCC 12228): > 32 µg/mL; MIC (MRSE ATCC 35983): 16 µg/mL (≈ 38.2 µM); MIC (S.epidermis St 358): 16 µg/mL (≈ 38.2 µM); MIC (E.faecalis SP 346 VRE): 16(ppt); MIC (E.faecium 6A VRE): 32 µg/mL (≈ 76.5 µM); MIC (E.faecium 134 VRE): 8 µg/mL (≈ 19.1 µM); MIC (E.faecium 06076 VRE): 32 µg/mL (≈ 76.5 µM); MIC (E.faecium ATCC 3567): > 32 µg/mL; MIC [7]: 50 µg/mL (≈ 119 µM); melting point: 105 to 107 °C
C[Si]1(C)CCN(c2ccc(N3C[C@H](CO)OC3=O)cc2F)CC1 [NDS-10059, (R)-3-(4-(4,4-dimethyl-1,4-azasilinan-1-yl)-3-fluorophenyl)-5-(hydroxymethyl)oxazolidin-2-one]	> 32	> 32	> 32	> 32	> 32	> 32	> 32	> 32	> 32	32 (≈ 94.5 µM)	32 (≈ 94.5 µM)	32 (≈ 94.5 µM)	32 (≈ 94.5 µM)	> 32	32 (≈ 94.5 µM)	> 32	> 32	32 (≈ 94.5 µM)	32 µg/mL (≈ 94.5 µM)	> 32	MIC (MRSA 0-2657): 32 µg/mL (≈ 94.5 µM); MIC (MRSA DB 00026): > 32 µg/mL; MIC [6]: > 32 µg/mL; MIC (S.epidermidis ATCC 12228): > 32 µg/mL; MIC (MRSE ATCC 35983): > 32 µg/mL; MIC (S.epidermis St 358): 32 µg/mL (≈ 94.5 µM); MIC (E.faecalis SP 346 VRE): 32 µg/mL (≈ 94.5 µM); MIC (E.faecium 6A VRE): > 32 µg/mL; MIC (E.faecium 134 VRE): 32 µg/mL (≈ 94.5 µM); MIC (E.faecium 06076 VRE): > 32 µg/mL; MIC (E.faecium ATCC 3567): > 32 µg/mL; MIC [7]: 100 µg/mL (≈ 295 µM)
CC(=O)NC[C@H]1CN(c2ccc(N3CC[Si](C)(C)CC3)c(F)c2)C(=O)O1 [NDS-10024, (S)—N-((3-(4-(4,4-dimethyl-1,4-azasilinan-1-yl)-3-fluorophenyl)-2-oxooxazolidin-5-yl)methyl)acetamide]	16 (≈ 42.2 µM)	16 (≈ 42.2 µM)	16 (≈ 42.2 µM)	16 (≈ 42.2 µM)	16 (≈ 42.2 µM)	16 (≈ 42.2 µM)	16 (≈ 42.2 µM)	16 (≈ 42.2 µM)	16 (≈ 42.2 µM)	8 (≈ 21.1 µM)	8 (≈ 21.1 µM)	16 (≈ 42.2 µM)	16 (≈ 42.2 µM)	16 (≈ 42.2 µM)	16 (≈ 42.2 µM)	8 (≈ 21.1 µM)	8 (≈ 21.1 µM)	> 32	16 µg/mL (≈ 42.2 µM)	8 (≈ 21.1 µM)	MIC (MRSA 0-2657): 8 µg/mL (≈ 21.1 µM); MIC (MRSA DB 00026): 16 µg/mL (≈ 42.2 µM); MIC [6]: > 16 µg/mL; MIC (S.epidermidis ATCC 12228): 8 µg/mL (≈ 21.1 µM); MIC (MRSE ATCC 35983): 8 µg/mL (≈ 21.1 µM); MIC (S.epidermis St 358): 8 µg/mL (≈ 21.1 µM); MIC (E.faecalis SP 346 VRE): 16 µg/mL (≈ 42.2 µM); MIC (E.faecium 6A VRE): 16 µg/mL (≈ 42.2 µM); MIC (E.faecium 134 VRE): 16 µg/mL (≈ 42.2 µM); MIC (E.faecium 06076 VRE): 16 µg/mL (≈ 42.2 µM); MIC (E.faecium ATCC 3567): 16 µg/mL (≈ 42.2 µM); anti-tubercular activity (in words) ([7]; Mycobacterium tuberculosis H37Rv): good anti-tubercular activity; MIC [7]: 6.25 µg/mL (≈ 16.5 µM)
